# In patent publication US8623859B2, “Bradykinin B1 antagonists” (Evotec AG, priority 2008, dated 2014):
# pIC50: −log10 of the molar value. Structures can show the parent of a compound that is named as a salt.
# Biological target: T1, human B1 (Homo sapiens, UniProt P46663)
# T1 construct: host or cells: CHO-K1
# T1 sequence (P46663 1-353): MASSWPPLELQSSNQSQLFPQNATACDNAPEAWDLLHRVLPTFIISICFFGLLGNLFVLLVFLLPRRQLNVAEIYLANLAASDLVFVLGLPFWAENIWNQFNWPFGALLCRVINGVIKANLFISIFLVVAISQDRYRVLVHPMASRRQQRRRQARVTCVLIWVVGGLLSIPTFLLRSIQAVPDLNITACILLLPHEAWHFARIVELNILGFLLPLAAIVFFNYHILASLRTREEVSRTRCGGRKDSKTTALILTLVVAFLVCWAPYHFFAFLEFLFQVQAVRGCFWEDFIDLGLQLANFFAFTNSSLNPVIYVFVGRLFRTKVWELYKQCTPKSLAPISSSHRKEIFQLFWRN
# Experiment: Calcium flux assay for Bradykinin B1 antagonist, CHO-K1 cell line expressing human B1
# Format: cell-based
# Details: CHO-K1 cells expressing human B1, agonist Lys-(Des-Arg)-Bradykinin, read-out: Potency (IC50 value against human B1)
# Summary of the method: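 Inhibition of B1 agonist-evoked intracellular Ca2+ rise was followed by continuous fluorescence at 538 nm, with integrated, background-normalized signals plotted versus log compound concentration. Test compounds (eight 10-fold dilutions, triplicate, 1% DMSO final) were added 30 min at 25° C beforehand to Fluo-4AM-loaded human B1 CHO-K1 cells in pH 7.4 assay buffer.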
row,pIC50,Structure (SMILES)
1,7.00 to 8.00,"CCN(Cc1cc(C(=O)N(C)Cc2ccc(C3=NCCN3)cc2)co1)S(=O)(=O)c1c(C)cc(OC)cc1C [Ex 103, N-[4-(4,5-Dihydro-1H-imidazol-2-yl)benzyl]-5-({ethyl[(4-methoxy-2,6-dimethylphenyl)sulfonyl]amino}methyl)-N-methylfuran-3-carboxamide trifluoroacetate]"
2,7.00 to 8.00,"CCN(Cc1cc(C(=O)NCCc2ccc(C3=NCCN3)cc2)co1)S(=O)(=O)c1c(C)cc(OC)cc1C [Ex 104, N-{2-[4-(4,5-Dihydro-1H-imidazol-2-yl)phenyl]ethyl}-5-({ethyl[(4-methoxy-2,6-dimethylphenyl)sulfonyl]amino}methyl)furan-3-carboxamide trifluoroacetate]"
3,7.00 to 8.00,"COc1cc(C)c(S(=O)(=O)N(Cc2cc(C(=O)N3CCN(CC4CCN(C)CC4)CC3)co2)C2CC2)c(C)c1 [Ex 105, N-Cyclopropyl-4-methoxy-2,6-dimethyl-N-{[4-({4-[(1-methylpiperidin-4-yl)methyl]piperazin-1-yl}carbonyl)furan-2-yl]methyl}benzenesulfonamide trifluoroacetate]"
4,7.00 to 8.00,"COc1cc(C)c(S(=O)(=O)N(Cc2cc(C(=O)N3CCN(CC4CCCN(C)C4)CC3)co2)C2CC2)c(C)c1 (stereo not shown) [Ex 106, N-Cyclopropyl-4-methoxy-2,6-dimethyl-N-{[4-({4-[(1-methylpiperidin-3-yl)methyl]piperazin-1-yl}carbonyl)furan-2-yl]methyl}benzenesulfonamide trifluoroacetate]"
5,6.00 to 7.00,"COc1cc(C)c(S(=O)(=O)N(Cc2cc(C(=O)N3CCN(C4CC(C)(C)N(C)C(C)(C)C4)CC3)co2)C2CC2)c(C)c1 [Ex 108, N-Cyclopropyl-4-methoxy-2,6-dimethyl-N-[(4-{[4-(1,2,2,6,6-pentamethylpiperidin-4-yl)piperazin-1-yl]carbonyl}furan-2-yl)methyl]benzenesulfonamide trifluoroacetate]"
6,6.00 to 7.00,"COc1cc(C)c(S(=O)(=O)N(Cc2cc(C(=O)N3CCN(CCN4CCCCC4)CC3)co2)C2CC2)c(C)c1 [Ex 109, N-Cyclopropyl-4-methoxy-2,6-dimethyl-N-[(4-{[4-(2-piperidin-1-ylethyl)piperazin-1-yl]carbonyl}furan-2-yl)methyl]benzenesulfonamide trifluoroacetate]"
7,6.00 to 7.00,"COc1cc(C)c(S(=O)(=O)N(Cc2cc(C(=O)N3CCN(CCc4ccncc4)CC3)co2)C2CC2)c(C)c1 [Ex 110, N-Cyclopropyl-4-methoxy-2,6-dimethyl-N-[(4-{[4-(2-pyridin-4-ylethyl)piperazin-1-yl]carbonyl}furan-2-yl)methyl]benzenesulfonamide trifluoroacetate]"
8,6.00 to 7.00,"COc1cc(C)c(S(=O)(=O)N(Cc2cc(C(=O)N3CCN(Cc4cccnc4)CC3)co2)C2CC2)c(C)c1 [Ex 111, N-Cyclopropyl-4-methoxy-2,6-dimethyl-N-[(4-{[4-(pyridin-3-ylmethyl)piperazin-1-yl]carbonyl}furan-2-yl)methyl]benzenesulfonamide trifluoroacetate]"
9,7.00 to 8.00,"COc1cc(C)c(S(=O)(=O)N(Cc2cc(C(=O)N3CCN(CCN4CCCC4)CC3)co2)C2CC2)c(C)c1 [Ex 112, N-Cyclopropyl-4-methoxy-2,6-dimethyl-N-[(4-{[4-(2-pyrrolidin-1-ylethyl)piperazin-1-yl]carbonyl}furan-2-yl)methyl]benzenesulfonamide trifluoroacetate]"
10,6.00 to 7.00,"CCN1CCN(CCNC(=O)c2coc(CN(C3CC3)S(=O)(=O)c3c(C)cc(OC)cc3C)c2)CC1 [Ex 113, 5-({Cyclopropyl[(4-methoxy-2,6-dimethylphenyl)sulfonyl]amino}methyl)-N-[2-(4-ethylpiperazin-1-yl)ethyl]furan-3-carboxamide trifluoroacetate]"
11,6.00 to 7.00,"COc1cc(C)c(S(=O)(=O)N(Cc2cc(C(=O)N3CCN(CCc4ccccn4)CC3)co2)C2CC2)c(C)c1 [Ex 114, N-Cyclopropyl-4-methoxy-2,6-dimethyl-N-[(4-{[4-(2-pyridin-2-ylethyl)piperazin-1-yl]carbonyl}furan-2-yl)methyl]benzenesulfonamide trifluoroacetate]"
12,7.00 to 8.00,"COc1cc(C)c(S(=O)(=O)N(Cc2cc(C(=O)N3CCN(CCCN4CCCC4)CC3)co2)C2CC2)c(C)c1 [Ex 115, N-Cyclopropyl-4-methoxy-2,6-dimethyl-N-[(4-{[4-(3-pyrrolidin-1-ylpropyl)piperazin-1-yl]carbonyl}furan-2-yl)methyl]benzenesulfonamide trifluoroacetate]"
13,7.00 to 8.00,"COc1cc(C)c(S(=O)(=O)N(Cc2cc(C(=O)N3CCCN(CCCN4CCCC4)CC3)co2)C2CC2)c(C)c1 [Ex 116, N-Cyclopropyl-4-methoxy-2,6-dimethyl-N-[(4-{[4-(3-pyrrolidin-1-ylpropyl)-1,4-diazepan-1-yl]carbonyl}furan-2-yl)methyl]benzenesulfonamide trifluoroacetate]"
14,6.00 to 7.00,"COc1cc(C)c(S(=O)(=O)N(Cc2cc(C(=O)N3CCN(CC(=O)Nc4cccnc4)CC3)co2)C2CC2)c(C)c1 [Ex 117, 2-(4-{[5-({Cyclopropyl[(4-methoxy-2,6-dimethylphenyl)sulfonyl]amino}methyl)furan-3-yl]carbonyl}piperazin-1-yl)-N-pyridin-3-ylacetamide trifluoroacetate]"
15,7.00 to 8.00,"COc1cc(C)c(S(=O)(=O)N(Cc2cc(C(=O)N3CCN(CCCN(C)C)CC3)co2)C2CC2)c(C)c1 [Ex 118, N-Cyclopropyl-N-{[4-({4-[3-(dimethylamino)propyl]piperazin-1-yl}carbonyl)furan-2-yl]methyl}-4-methoxy-2,6-dimethylbenzenesulfonamide trifluoroacetate]"
16,6.00 to 7.00,"COc1cc(C)c(S(=O)(=O)N(Cc2cc(C(=O)N3CCC(N4CCN(C)CC4)CC3)co2)C2CC2)c(C)c1 [Ex 119, N-Cyclopropyl-4-methoxy-2,6-dimethyl-N-[(4-{[4-(4-methylpiperazin-1-yl)piperidin-1-yl]carbonyl}furan-2-yl)methyl]benzenesulfonamide trifluoroacetate]"
17,> 8.00,"COc1cc(C)c(S(=O)(=O)N(Cc2cc(C(=O)N3CCC(CCN4CCCC4)CC3)co2)C2CC2)c(C)c1 [Ex 120, N-Cyclopropyl-4-methoxy-2,6-dimethyl-N-[(4-{[4-(2-pyrrolidin-1-ylethyl)piperidin-1-yl]carbonyl}furan-2-yl)methyl]benzenesulfonamide trifluoroacetate]"
18,6.00 to 7.00,"CCN(Cc1cc(C(=O)N(C)Cc2ccc(CN3CCCC3)cc2)co1)S(=O)(=O)c1c(Cl)cccc1Cl [Ex 121, 5-({[(2,6-Dichlorophenyl)sulfonyl](ethyl)amino}methyl)-N-methyl-N-[4-(pyrrolidin-1-ylmethyl)benzyl]furan-3-carboxamide trifluoroacetate]"
19,6.00 to 7.00,"CCN(Cc1cc(C(=O)NCCc2ccc(C3=NCCN3)cc2)co1)S(=O)(=O)c1c(Cl)cccc1Cl [Ex 122, 5-({[(2,6-Dichlorophenyl)sulfonyl](ethyl)amino}methyl)-N-{2-[4-(4,5-dihydro-1H-imidazol-2-yl)phenyl]ethyl}furan-3-carboxamide trifluoroacetate]"
20,> 8.00,"CN(Cc1ccc(C2=NCCN2)cc1)C(=O)c1coc(CN(C2CC2)S(=O)(=O)c2c(Cl)cc(Br)cc2Cl)c1 [Ex 123, 5-({[(4-Bromo-2,6-dichlorophenyl)sulfonyl](cyclopropyl)amino}methyl)-N-[4-(4,5-dihydro-1H-imidazol-2-yl)benzyl]-N-methylfuran-3-carboxamide trifluoroacetate]"
21,> 8.00,"CN(CCc1ccc(C2=NCCN2)cc1)C(=O)c1coc(CN(C2CC2)S(=O)(=O)c2c(Cl)cc(Br)cc2Cl)c1 [Ex 124, 5-({[(4-Bromo-2,6-dichlorophenyl)sulfonyl](cyclopropyl)amino}methyl)-N-{2-[4-(4,5-dihydro-1H-imidazol-2-yl)phenyl]ethyl}-N-methylfuran-3-carboxamide trifluoroacetate]"
22,6.00 to 7.00,"O=C(c1coc(CN(C2CC2)S(=O)(=O)c2c(Cl)cc(Br)cc2Cl)c1)N1CCCC(c2ccc(CN3CCCC3)cc2)C1 (stereo not shown) [Ex 125, 4-Bromo-2,6-dichloro-N-cyclopropyl-N-{[4-({3-[4-(pyrrolidin-1-ylmethyl)phenyl]piperidin-1-yl}carbonyl)furan-2-yl]methyl}benzenesulfonamide trifluoroacetate]"
23,7.00 to 8.00,"COc1cc(C)c(S(=O)(=O)N(C)Cc2cc(C(=O)N(C)Cc3ccc(CN4CCC(O)CC4)cc3)co2)c(C)c1 [Ex 126, N-{4-[(4-Hydroxypiperidin-1-yl)methyl]benzyl}-5-({[(4-methoxy-2,6-dimethylphenyl)sulfonyl](methyl)amino}methyl)-N-methylfuran-3-carboxamide]"
24,7.00 to 8.00,"COc1cc(C)c(S(=O)(=O)N(C)Cc2cc(C(=O)N(C)Cc3ccc(CN4CCC(OC)CC4)cc3)co2)c(C)c1 [Ex 127, 5-({[(4-Methoxy-2,6-dimethylphenyl)sulfonyl](methyl)amino}methyl)-N-{4-[(4-methoxypiperidin-1-yl)methyl]benzyl}-N-methylfuran-3-carboxamide]"

row,Structure (SMILES),pIC50
1,"COc1cc(C)c(S(=O)(=O)N(Cc2cc(C(=O)N3CCN(C4CC5CCC(C4)N5C)CC3)co2)C2CC2)c(C)c1 (stereo not shown) [Ex 107, N-Cyclopropyl-4-methoxy-2,6-dimethyl-N-[(4-{[4-(8-methyl-8-azabicyclo[3.2.1]oct-3-yl)piperazin-1-yl]carbonyl}furan-2-yl)methyl]benzenesulfonamide trifluoroacetate]",7.00 to 8.00
